Test results taken from US4160829A, “Antibacterial 1,2,4-oxadiazolylacetamido cephalosporins” (Gist-Brocades N.V., priority 1972, dated 1979).
Values after ≈ are worked out from the molar mass of the structure shown. Like-named read-outs stand apart in the source and are kept apart here.

Columns and labels:
Bac.Subt.ATCC 6633 = experiment: agar serial dilution test; format: cell-based, Bacillus subtilis; conditions: Bacillus subtilis, ATCC6633, 24 h, agar serial dilution, 24 hours, 37° C.; read-out: minimal inhibitory concentration (MIC)
Staph.aureus A 321 = experiment: agar serial dilution test; format: cell-based, Staphylococcus aureus; conditions: Staphylococcus aureus, A321, 24 h, agar serial dilution, 24 hours, 37° C.; read-out: minimal inhibitory concentration (MIC)
Staph.aureus A 2000 [1] = experiment: agar serial dilution test; format: cell-based, Staphylococcus aureus; conditions: Staphylococcus aureus, A2000, 24 h, agar serial dilution, 24 hours, 37° C.; read-out: minimal inhibitory concentration (MIC)
Staph.aureus A 2001 [2] = experiment: agar serial dilution test; format: cell-based, Staphylococcus aureus; conditions: Staphylococcus aureus, A2001, 24 h, agar serial dilution, 24 hours, 37° C.; read-out: minimal inhibitory concentration (MIC)
Strep. faec. L 80 = experiment: agar serial dilution test; format: cell-based, Streptococcus faecalis; conditions: Enterococcus faecalis; agar serial dilution, 24 hours, 37° C.; read-out: minimal inhibitory concentration (MIC)
Dipl.pneum. L 54 = experiment: agar serial dilution test; format: cell-based, Diplococcus pneumoniae; conditions: Streptococcus pneumoniae; agar serial dilution, 24 hours, 37° C.; read-out: minimal inhibitory concentration (MIC)
Bruc.melit. A 488 = experiment: microbe, parasite or virus in culture; format: cell-based; conditions: Brucella melitensis, 24 h, read-out: minimal inhibitory concentration (MIC)
Past.multo. A 723 = experiment: agar serial dilution test; format: cell-based, Pasteurella multocida; conditions: Pasteurella multocida; agar serial dilution, 24 hours, 37° C.; read-out: minimal inhibitory concentration (MIC)
Kleb.pneum. A 809 = experiment: agar serial dilution test; format: cell-based, Klebsiella pneumoniae; conditions: Klebsiella pneumoniae; agar serial dilution, 24 hours, 37° C.; read-out: minimal inhibitory concentration (MIC)
Salm.dubl. P 43 = experiment: agar serial dilution test; format: cell-based, Salmonella dublin; conditions: Salmonella enterica; agar serial dilution, 24 hours, 37° C.; read-out: minimal inhibitory concentration (MIC)
Salm.typh. R 127 = experiment: agar serial dilution test; format: cell-based; conditions: 24 h, 37° C., read-out: minimal inhibitory concentration (MIC)
Esch.coli U 20 = experiment: agar serial dilution test; format: cell-based, Escherichia coli; conditions: Escherichia coli, U20; agar serial dilution, 24 hours, 37° C.; read-out: minimal inhibitory concentration (MIC)
Shig.equir. T 3 = experiment: agar serial dilution test; format: cell-based; conditions: 24 h, 37° C., read-out: minimal inhibitory concentration (MIC)
Pseud.aerug. H 10 = experiment: agar serial dilution test; format: cell-based; conditions: agar serial dilution, 24 hours, 37° C.; read-out: minimal inhibitory concentration (MIC)
Pseud.aerug. 2396 = experiment: agar serial dilution test; format: cell-based; conditions: agar serial dilution, 24 hours, 37° C.; read-out: minimal inhibitory concentration (MIC)
[3] = test system: Pseud.aerug. Wyeth A 1058; experiment: agar serial dilution test; format: cell-based; conditions: agar serial dilution, 24 hours, 37° C.; read-out: minimal inhibitory concentration (MIC)
Prot.rettg. A 821 = experiment: agar serial dilution test; format: cell-based, Proteus rettgeri; conditions: Providencia rettgeri, 24 h, agar serial dilution, 24 hours, 37° C.; read-out: minimal inhibitory concentration (MIC)
Prot.mirab. H 3 = experiment: agar serial dilution test; format: cell-based, Proteus mirabilis; conditions: Proteus mirabilis; agar serial dilution, 24 hours, 37° C.; read-out: minimal inhibitory concentration (MIC)
Prot.mirab. L 93 = experiment: agar serial dilution test; format: cell-based, Proteus mirabilis; conditions: Proteus mirabilis
Prot.mirab. A 1200 = experiment: agar serial dilution test; format: cell-based, Proteus mirabilis; conditions: Proteus mirabilis, 24 h, agar serial dilution, 24 hours, 37° C.; read-out: minimal inhibitory concentration (MIC)
Prot.morg. 2241 = experiment: agar serial dilution test; format: cell-based; conditions: 24 h, agar serial dilution, 24 hours, 37° C.; read-out: minimal inhibitory concentration (MIC)
Staph.aureus A 355 [4] = experiment: micro serial dilution test; format: cell-based, Staphylococcus aureus; conditions: Staphylococcus aureus, A355; micro serial dilution (in brackets), about 18 hours, 30° C. or 37° C.; penicillinase-producing strain; read-out: minimal inhibitory concentration (MIC)
Source text: Two drops of a stock solution of the test compound (antibiotic) in a known concentration were brought into the first hole of a test plate with 9 numbered holes with a sterile Pasteur pipette. After rinsing this pipette three times with a physiological NaCl-solution, two drops of a stock solution of the test organism in a culture medium were brought in all the holes except for hole 8. In the first hole, the solution of the tested compound had been half diluted, then by stirring the liquid in the first hole and adding two drops of this mixture to the second hole and so on until hole 8, dilutions of the test compound solution were obtained in geometrical progression. The hole 9 contained no antibiotic and served for checking the growth of the testogranism in a blank medium. The test plate was incubated at 30° C. or 37° C. for about 18 hours.
^1 Penicillinase-producing strain

Staph.aureus A 2000 [5] = experiment: micro serial dilution test; format: cell-based, Staphylococcus aureus; conditions: Staphylococcus aureus, A2000, 18 h, micro serial dilution (in brackets), about 18 hours, 30° C. or 37° C.; read-out: minimal inhibitory concentration (MIC)
Staph.aureus A 2001 [6] = experiment: micro serial dilution test; format: cell-based, Staphylococcus aureus; conditions: Staphylococcus aureus, A2001, 18 h, micro serial dilution (in brackets), about 18 hours, 30° C. or 37° C.; read-out: minimal inhibitory concentration (MIC)
Haem.infl. A 1030 = experiment: micro serial dilution test; format: cell-based; conditions: 18 h, micro serial dilution (in brackets), about 18 hours, 30° C. or 37° C.; read-out: minimal inhibitory concentration (MIC)
Staph.aureus A 355 [7] = experiment: agar serial dilution test; conditions: Staphylococcus aureus, A355, 24 h, read-out: minimal inhibitory concentration (MIC), agar serial dilution, 24 hours, 37° C.; penicillinase-producing strain
Strep.haem. A 266 = experiment: agar serial dilution test; format: cell-based, Streptococcus haemolyticus; conditions: Streptococcus; agar serial dilution, 24 hours, 37° C.; read-out: minimal inhibitory concentration (MIC)
[8] = agar serial dilution, 24 hours, 37° C., read-out: minimal inhibitory concentration (MIC)

| SMILES | MIC (Bac.Subt.ATCC 6633) [µg/mL] | MIC (Staph.aureus A 321) [µg/mL] | MIC (Staph.aureus A 2000 [1]) [µg/mL] | MIC (Staph.aureus A 2001 [2]) [µg/mL] | MIC (Strep. faec. L 80) [µg/mL] | MIC (Dipl.pneum. L 54) [µg/mL] | MIC (Bruc.melit. A 488) [µg/mL] | MIC (Past.multo. A 723) [µg/mL] | MIC (Kleb.pneum. A 809) [µg/mL] | MIC (Salm.dubl. P 43) [µg/mL] | MIC (Salm.typh. R 127) [µg/mL] | MIC (Esch.coli U 20) [µg/mL] | MIC (Shig.equir. T 3) [µg/mL] | MIC (Pseud.aerug. H 10) [µg/mL] | MIC [3] [µg/mL] | MIC (Prot.rettg. A 821) [µg/mL] | MIC (Prot.mirab. H 3) [µg/mL] | MIC (Prot.mirab. A 1200) [µg/mL] | MIC (Prot.morg. 2241) [µg/mL] | MIC (Haem.infl. A 1030) [µg/mL] | also measured |
| --- | --- | --- | --- | --- | --- | --- | --- | --- | --- | --- | --- | --- | --- | --- | --- | --- | --- | --- | --- | --- | --- |
| Cc1noc(C(C(=O)N[C@@H]2C(=O)N3[C@@H]2SC(C)(C)[C@@H]3C(=O)O)c2ccccc2)n1 (mixture of isomers) [Example 6, sodium DL-6-{[α-phenyl-3-methyl-1,2,4-oxadiazol-5-yl-]-acetamido}-penicillanate] | 0.03 | 0.25 | 1.5 | 1 | 1 | 0.06 | 1 | 1 | 100 | 100 | > 100 | 100 | 12.5 | > 100 | > 100 | 3 | 100 | 100 | > 100 | 1.2 | MIC (Pseud.aerug. 2396): > 100 µg/mL; MIC (Prot.mirab. L 93; 24 h, read-out: minimal inhibitory concentration (MIC), agar serial dilution, 24 hours, 37° C.): 12.5 µg/mL; MIC (Staph.aureus A 355 [4]): 125 µg/mL; MIC (Staph.aureus A 2000 [5]): 23 µg/mL; MIC (Staph.aureus A 2001 [6]): 2.5 µg/mL; MIC (Staph.aureus A 355 [7]): 25 µg/mL |
| Cc1noc(C(C)C(=O)N[C@@H]2C(=O)N3[C@@H]2SC(C)(C)[C@@H]3C(=O)O)n1 (mixture of isomers) [Example 11H, dl-6[α-methyl-(3-methyl-1,2,4-oxadiazol-5-yl)-acetamido]-penicillanic acid] | 0.06 | 0.25 | 6 | 3 | 6 | 0.25 | 0.25 | 1.5 | > 100 | 50 | 100 | ≥ 100 | 25 | > 100 | > 100 | 12.5 | > 100 | > 100 | > 100 | 3.7 | MIC (Strep.haem. A 266): 0.5 µg/mL; MIC (Pseud.aerug. 2396): > 100 µg/mL; MIC (Prot.mirab. L 93; [8]): 6 µg/mL; MIC (Staph.aureus A 355 [7]): 12.5 µg/mL |
| CCc1noc(CC(=O)N[C@@H]2C(=O)N3C(C(=O)O)=C(COC(C)=O)CS[C@H]23)n1 [Example 11L, 7-[(3-ethyl-1,2,4-oxadiazol-5-yl)-acetamido]-cephalosporanic acid] | 0.12 (≈ 0.292 µM) | 0.25 (≈ 0.609 µM) | 1 (≈ 2.44 µM) | 1 (≈ 2.44 µM) | 50 (≈ 122 µM) | 1 (≈ 2.44 µM) | 6 (≈ 14.6 µM) | 2 (≈ 4.87 µM) | 1.5 (≈ 3.65 µM) | 3 (≈ 7.31 µM) | 6 (≈ 14.6 µM) | 6 (≈ 14.6 µM) | 3 (≈ 7.31 µM) | > 100 | > 100 | 1 (≈ 2.44 µM) | 50 (≈ 122 µM) | 25 (≈ 60.9 µM) | > 100 | ≥ 125 | MIC (Strep.haem. A 266): 0.25 µg/mL (≈ 0.609 µM); MIC (Pseud.aerug. 2396): > 100 µg/mL; MIC (Prot.mirab. L 93; [8]): 3 µg/mL (≈ 7.31 µM); MIC (Staph.aureus A 355 [7]): 1 µg/mL (≈ 2.44 µM) |
| CCc1noc(C(C)C(=O)N[C@@H]2C(=O)N3[C@@H]2SC(C)(C)[C@@H]3C(=O)O)n1 (stereo partly drawn) [Example 11M, sodium 6-[α-methyl-(3-ethyl-1,2,4-oxadiazol-5-yl)-acetamido]-penicillanate H2 O] | 0.06 | 0.12 | 6 | 6 | 6 | 0.5 | 0.5 | 1 | > 100 | 50 | > 100 | > 100 | 50 | > 100 | > 100 | 3 | > 100 | > 100 | > 100 | 3.7 | MIC (Strep.haem. A 266): 0.5 µg/mL; MIC (Pseud.aerug. 2396): > 100 µg/mL; MIC (Prot.mirab. L 93; [8]): 25 µg/mL; MIC (Staph.aureus A 355 [7]): 12.5 µg/mL |
| Cc1nc(CC(=O)N[C@@H]2C(=O)N3[C@@H]2SC(C)(C)[C@@H]3C(=O)O)no1 [Example 13, Sodium 6-[(5-methyl-1,2,4-oxadiazol-3-yl)-acetamido]-penicillanate] | 0.03 | 0.12 | 1.5 | 1.5 | 6 | 1 | 3 | 1 | > 100 | 3 | 25 | 50 | 3 | > 100 | > 100 | 6 | 100 | 25 | 100 | 125 | MIC (Strep.haem. A 266): 0.03 µg/mL; MIC (Prot.mirab. L 93; [8]): 3 µg/mL; MIC (Staph.aureus A 355 [7]): 10 µg/mL |
